Consider 7 compounds from ChEMBL document CHEMBL1132844, “Assessment of substitution in the second pharmacophore of Dmt-Tic analogues” (Bioorg Med Chem Lett, 2000).

Activity calls are given as the source filed them. The calls are words filed in the database; no cut-off is given here. Square brackets hold non-standard residues; d marks the D form. Peptide text beside a SMILES is read from it. ξ: configuration not given here. Dmt = Cc1cc(O)cc(C)c1C[C@H](N)C(=O)O; ξTic = O=C(O)C1Cc2ccccc2CN1

Experiment [1] deals with T1, Delta-type opioid receptor (Mus musculus, UniProt P32300). The experiment is described as follows: (§1) Negative logarithm of the molar concentration of delta receptor was determined in mouse vas deferens. The conditions noted are these: read-out: pA2 (converted).
T1 sequence (P32300 whole entry): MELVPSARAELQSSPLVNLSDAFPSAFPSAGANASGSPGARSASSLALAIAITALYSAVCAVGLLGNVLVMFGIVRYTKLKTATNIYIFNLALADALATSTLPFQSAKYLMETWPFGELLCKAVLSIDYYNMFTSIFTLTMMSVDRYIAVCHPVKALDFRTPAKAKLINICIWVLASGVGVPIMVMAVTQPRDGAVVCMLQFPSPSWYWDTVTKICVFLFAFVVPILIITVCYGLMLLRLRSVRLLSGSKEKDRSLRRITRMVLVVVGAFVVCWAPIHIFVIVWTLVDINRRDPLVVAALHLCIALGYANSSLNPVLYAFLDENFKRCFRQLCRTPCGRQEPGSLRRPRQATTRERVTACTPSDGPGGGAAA
In experiment [2] the target is T2, Mu-type opioid receptor (Cavia porcellus, UniProt P97266). The experiment is described as follows: Negative logarithm of the molar concentration for agonist activity at mu receptor was determined in guinea pig ileum. The class given is functional, tissue-based.
T2 sequence (P97266 whole entry): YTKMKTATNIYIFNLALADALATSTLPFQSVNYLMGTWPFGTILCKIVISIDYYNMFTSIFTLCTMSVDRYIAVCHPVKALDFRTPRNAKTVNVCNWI
Experiment [3] concerns the target Delta-type opioid receptor (Mus musculus) (UniProt P32300).
Experiment [4] has the same target. The experiment is described as follows: Negative logarithm of the molar concentration of delta receptor was determined in mouse vas deferens; i represents inactivity up to 1 mM. The class given is functional.
Experiment [5] addresses T2, Mu-type opioid receptor. The experiment in a line: Negative logarithm of the molar concentration for agonist activity at Opioid receptor mu 1 was determined in guinea pig ileum. It counts as functional, tissue-based.
The target of experiment [6] is T1, Delta-type opioid receptor. The experiment is described as §1. The class given is functional. The note with it: read-out: pA2 (converted).

Delta-type opioid receptor (Mus musculus), sequence (P32300 whole entry): as the sequence (P32300 whole entry) above

The EC50 is the concentration needed to bring the measured effect to its halfway point. Take `Cc1cc(O)cc(C)c1C[C@H](N)C(=O)N1Cc2ccc(F)cc2CC1C(=O)O` (some centres undefined): the Kb in experiment [1] was 35.5 nM. Further, in experiment [2], the half-maximal effective concentration (EC50) was 813 nM. Besides, in experiment [3], the “Log EC50” value was “inactive”.
Turning to `Cc1cc(O)cc(C)c1C[C@H](N)C(=O)N1Cc2ccccc2CC1C(N)=O` (some centres undefined) (H-[Dmt]-[ξTic]-NH2), the “Log EC50” value in experiment [4] is “inactive”. Further, the EC50 in experiment [5] is greater than 10000 nM. Also, in experiment [6], the Kb is 63.1 nM.
Regarding `Cc1cc(O)cc(C)c1C[C@H](N)C(=O)N1Cc2ccccc2CC1COCc1ccccc1` (some centres undefined), the Kb in experiment [1] was 13.5 nM. Also, the midpoint of the response in experiment [2], the EC50, lay at 525 nM. In experiment [3], the “Log EC50” value was “inactive”.
Turning to `Cc1cc(O)cc(C)c1C[C@H](N)C(=O)N1CCc2ccc(F)cc2C1`, the Kb in experiment [1] is 617 nM. The compound further had an EC50 in experiment [2] of 631 nM. The “Log EC50” value in experiment [3] was “inactive”.
Consider `Cc1cc(O)cc(C)c1C[C@H](N)C(=O)N1Cc2ccccc2CC1CO` (some centres undefined), for which, in experiment [4], the “Log EC50” value was “inactive”. Moreover, the concentration giving a half-maximal response (EC50) in experiment [5] was greater than 10000 nM. The Kb in experiment [6] is 100 nM.
Turning to `Cc1cc(O)cc(C)c1C[C@H](N)C(=O)N1CCc2ccccc2C1`, the Kb in experiment [1] is 38.9 nM. The “Log EC50” value in experiment [4] is “inactive”. This compound also had an EC50 in experiment [2] of 490 nM.
With `C[C@@H](NC(=O)[C@@H](N)Cc1ccc(O)cc1)C(=O)N[C@@H](Cc1ccccc1)C(=O)NCC(=O)N[C@@H](Cc1ccc(O)cc1)C(=O)N1CCC[C@H]1C(=O)N[C@@H](CO)C(N)=O` [DERMORPHIN], the response in experiment [2] was half-maximal at 1.58 nM (EC50).
